Read-outs that look alike come from different tables or passages of the source.
Key:
[1] = molecular target: T1, NOX4 (Homo sapiens, UniProt Q9NPH5); test: NOX4-dependent H2O2 production, Amplex Red assay in reconstituted HEK293 cells; format: cell-based; conditions: for IC50 / IC50 toward NOX4: exposure for 30 min
T1 construct: expressed in transfected cells; host or cells: HEK293
T1 sequence (Q9NPH5 1-578): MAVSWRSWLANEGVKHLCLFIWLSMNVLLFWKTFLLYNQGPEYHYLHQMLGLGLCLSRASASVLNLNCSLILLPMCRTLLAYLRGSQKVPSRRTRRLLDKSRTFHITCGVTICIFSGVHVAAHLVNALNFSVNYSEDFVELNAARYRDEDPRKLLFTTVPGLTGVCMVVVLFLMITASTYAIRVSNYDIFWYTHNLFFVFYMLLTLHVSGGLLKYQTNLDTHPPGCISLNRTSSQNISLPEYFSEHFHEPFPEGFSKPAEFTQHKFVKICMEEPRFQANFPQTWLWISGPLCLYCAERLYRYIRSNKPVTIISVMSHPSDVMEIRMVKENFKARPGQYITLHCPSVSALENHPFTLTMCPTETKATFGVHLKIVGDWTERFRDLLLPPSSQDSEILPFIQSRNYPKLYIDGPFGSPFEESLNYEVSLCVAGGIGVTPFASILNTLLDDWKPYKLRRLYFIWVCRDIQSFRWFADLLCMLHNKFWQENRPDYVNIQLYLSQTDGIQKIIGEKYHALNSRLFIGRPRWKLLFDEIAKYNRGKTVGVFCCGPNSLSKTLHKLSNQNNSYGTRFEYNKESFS
T1 sequence (P13498 2-195 partner limits assumed): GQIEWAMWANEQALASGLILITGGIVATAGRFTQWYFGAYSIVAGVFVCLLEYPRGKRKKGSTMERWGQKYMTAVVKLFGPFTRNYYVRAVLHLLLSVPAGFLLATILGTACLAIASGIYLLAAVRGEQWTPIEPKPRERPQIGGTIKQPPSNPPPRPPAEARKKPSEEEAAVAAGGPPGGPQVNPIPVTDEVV
Experimental: (§1) H2O2 was measured by Amplex Red assay to determine NOX4 or Duox2 activity in fully reconstituted HEK293 cells. The method conducted was similar to the approach disclosed in Jaquet et al in Brit J. Pharmacology 164: 507-520, 2011 using somewhat different cell models for the NOX isoforms and we studied Duox2 in our own cell model.

[2] = molecular target: T2, NOX5 (Homo sapiens, UniProt Q96PH1); test: NOX5-dependent ROS production, luminescence assay for O2.- in UACC257 melanoma cells; format: cell-based; conditions: exposure for 30 min
T2 sequence (Q96PH1 1-765): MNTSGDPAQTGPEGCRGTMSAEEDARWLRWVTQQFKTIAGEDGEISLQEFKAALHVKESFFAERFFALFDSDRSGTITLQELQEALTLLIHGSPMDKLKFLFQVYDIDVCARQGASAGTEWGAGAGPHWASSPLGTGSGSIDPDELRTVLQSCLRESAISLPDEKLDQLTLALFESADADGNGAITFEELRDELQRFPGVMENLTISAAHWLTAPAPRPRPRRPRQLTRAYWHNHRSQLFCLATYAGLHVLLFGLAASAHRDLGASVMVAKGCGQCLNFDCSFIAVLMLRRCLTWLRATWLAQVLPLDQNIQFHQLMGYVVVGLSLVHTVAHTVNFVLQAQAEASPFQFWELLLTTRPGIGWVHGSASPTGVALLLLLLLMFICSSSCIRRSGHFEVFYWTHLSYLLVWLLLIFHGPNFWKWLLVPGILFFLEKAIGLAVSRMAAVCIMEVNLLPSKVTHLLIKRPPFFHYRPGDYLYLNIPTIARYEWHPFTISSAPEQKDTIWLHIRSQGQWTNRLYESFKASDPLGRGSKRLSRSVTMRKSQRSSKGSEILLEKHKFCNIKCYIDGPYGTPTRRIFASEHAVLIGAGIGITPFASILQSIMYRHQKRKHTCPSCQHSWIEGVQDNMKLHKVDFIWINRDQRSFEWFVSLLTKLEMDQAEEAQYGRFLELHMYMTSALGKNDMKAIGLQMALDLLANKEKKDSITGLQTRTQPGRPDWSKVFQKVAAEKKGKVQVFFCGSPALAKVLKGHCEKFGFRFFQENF

[3] = system: HT-29 human colon cancer cells; test: Clonogenic assay, HT-29 cells; format: cell-based
Experimental: Several iodonium analog compounds were analyzed for inhibition of HT-29 growth using a clonogenic assay performed as described in Doroshow et al Biochem. Biophys. Res. Commun. 135: 330-335, 1986.

[4] = molecular target: T3, NOX2 (Homo sapiens, UniProt P04839); test: NOX2-dependent ROS production, luminescence assay for O2.- in differentiated HL-60 cells; format: cell-based; conditions: exposure for 30 min
T3 construct: fully differentiated HL-60 cells expressing active NOX2; endogenous in cells; host or cells: differentiated HL-60

[5] = molecular target: T4, NOX1/A1/O1 (Homo sapiens, UniProt Q9Y5S8); test: NOX1-dependent ROS production, luminescence assay for O2.- in HEK293 cells expressing the NOX1 complex; format: cell-based; conditions: for IC50 / IC50 toward NOX1: exposure for 30 min
T4 construct: expressed in transfected cells; host or cells: HEK293

[6] = system: NOX1, NOX2, NOX4, NOX5, and DUOX2; test: Screening for NADPH oxidase isoform specificity in cellular models (all isoforms); format: cell-based, human
Experimental: as §1, with “To evaluate compound specificity, a luminescence assay for O2.^− was used with HEK293 cells expressing all components of the NOX1 complex; fully differentiated HL-60 cells expressing active NOX2; and UACC257 melanoma cells that exclusively express active NOX5. H2O2” for “H2O2”

[7] = system: HT-29 human colon cancer cells; test: HT-29 cell cycle progression; format: cell-based; conditions: for G1 (%) / G2 (%) / S phase (%): 24 hours
Experimental: Several iodonium analog compounds were analyzed for effect on HT-29 cell cycle progression.

[8] = system: ROS production in HT-29 human colon cancer cells; test: ROS production in HT-29 cells (chemiluminescence / DCF analytical cytometry); format: cell-based
[9] = system: HT-29 human colon cancer cells; test: Growth inhibition of HT-29 cells by MTT assay; format: cell-based; conditions: for IC50: read-out: IC50, HT-29 human colon cancer cell growth
Experimental: The compounds were analyzed for growth inhibition of HT-29 human colon cancer cells by MTT assay: 48 hr, drug exposures over several orders of concentration. The MTT assay was performed as described in Wu et al J. Immunology 190: 1859-1872, 2013.

[10] = molecular target: DUOX2/A2 (Homo sapiens, UniProt Q9NRD8); test: DUOX2-dependent H2O2 production, Amplex Red assay in reconstituted HEK293 cells; format: cell-based
Sequence of DUOX2/A2 (Q9NRD8 26-1548): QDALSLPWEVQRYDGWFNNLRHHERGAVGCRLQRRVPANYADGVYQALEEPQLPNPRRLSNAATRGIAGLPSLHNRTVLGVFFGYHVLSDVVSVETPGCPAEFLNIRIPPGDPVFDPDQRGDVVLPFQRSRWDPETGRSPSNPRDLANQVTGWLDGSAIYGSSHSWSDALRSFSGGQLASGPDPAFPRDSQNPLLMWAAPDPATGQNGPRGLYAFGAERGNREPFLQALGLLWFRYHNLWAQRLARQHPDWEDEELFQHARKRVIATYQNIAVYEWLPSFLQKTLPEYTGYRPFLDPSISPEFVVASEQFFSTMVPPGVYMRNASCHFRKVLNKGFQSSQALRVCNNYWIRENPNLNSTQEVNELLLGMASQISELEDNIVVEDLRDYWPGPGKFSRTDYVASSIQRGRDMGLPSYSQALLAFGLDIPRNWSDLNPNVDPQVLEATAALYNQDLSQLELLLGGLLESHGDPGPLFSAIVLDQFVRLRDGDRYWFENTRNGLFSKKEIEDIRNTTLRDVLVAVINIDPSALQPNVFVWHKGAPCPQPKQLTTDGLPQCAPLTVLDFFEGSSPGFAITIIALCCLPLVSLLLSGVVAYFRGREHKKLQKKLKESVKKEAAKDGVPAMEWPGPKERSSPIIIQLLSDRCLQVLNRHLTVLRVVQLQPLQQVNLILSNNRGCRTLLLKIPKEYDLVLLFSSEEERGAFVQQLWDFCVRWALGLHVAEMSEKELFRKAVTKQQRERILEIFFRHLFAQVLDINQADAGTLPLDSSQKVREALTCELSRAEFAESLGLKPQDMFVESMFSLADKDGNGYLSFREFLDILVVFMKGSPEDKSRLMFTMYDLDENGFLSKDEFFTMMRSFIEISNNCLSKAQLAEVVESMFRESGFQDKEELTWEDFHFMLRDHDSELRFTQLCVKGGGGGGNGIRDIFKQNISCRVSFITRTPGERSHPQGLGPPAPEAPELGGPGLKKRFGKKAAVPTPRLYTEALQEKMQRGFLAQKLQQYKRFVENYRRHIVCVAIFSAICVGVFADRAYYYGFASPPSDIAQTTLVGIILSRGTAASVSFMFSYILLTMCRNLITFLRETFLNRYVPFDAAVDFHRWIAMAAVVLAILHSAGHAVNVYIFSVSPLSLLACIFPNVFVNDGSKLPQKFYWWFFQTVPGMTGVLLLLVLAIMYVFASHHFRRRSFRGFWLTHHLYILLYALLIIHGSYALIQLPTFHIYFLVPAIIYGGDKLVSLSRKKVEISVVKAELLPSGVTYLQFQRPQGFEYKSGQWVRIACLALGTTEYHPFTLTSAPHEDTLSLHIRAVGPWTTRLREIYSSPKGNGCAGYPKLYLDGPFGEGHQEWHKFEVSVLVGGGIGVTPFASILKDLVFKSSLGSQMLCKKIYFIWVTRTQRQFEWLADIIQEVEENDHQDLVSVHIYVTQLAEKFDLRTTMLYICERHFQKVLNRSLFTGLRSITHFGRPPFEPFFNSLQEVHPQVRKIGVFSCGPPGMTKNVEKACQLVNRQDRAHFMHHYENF
Sequence of DUOX2/A2 (Q1HG44 whole entry partner): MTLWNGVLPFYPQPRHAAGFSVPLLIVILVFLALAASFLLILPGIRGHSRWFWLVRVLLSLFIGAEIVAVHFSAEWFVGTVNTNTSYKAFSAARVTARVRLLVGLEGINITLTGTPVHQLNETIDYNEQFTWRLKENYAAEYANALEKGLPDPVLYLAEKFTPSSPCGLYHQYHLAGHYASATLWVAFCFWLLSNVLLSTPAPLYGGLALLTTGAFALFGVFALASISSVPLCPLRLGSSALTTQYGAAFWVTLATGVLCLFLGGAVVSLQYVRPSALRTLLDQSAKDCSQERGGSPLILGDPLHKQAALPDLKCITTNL
Experimental: as §1

[11] = system: NOX1 mRNA expression; test: NOX1 expression in HT-29 cells by quantitative RT-PCR; format: cell-based; conditions: HT-29 human colon cancer cells
[12] = 3-5 independent experiments, read-out: IC50 ± SE, NOX4 HEK293
[13] = 3-5 independent experiments, read-out: IC50 ± SE, NOX5 UACC-257
[14] = Homo sapiens, HT-29, 6 h, read-out: IC50 (±SE) clonogenic survival, 6 hrs drug exposure, 6 hrs exposure
[15] = 3-5 independent experiments, read-out: IC50 ± SE, NOX2 HL-60
[16] = 3-5 independent experiments, read-out: IC50 ± SE, NOX1/A1/O1 HEK 293
[17] = Homo sapiens, HT-29, 2 h, read-out: IC50 (±SE) clonogenic survival, 2 hrs drug exposure, 2 hrs exposure
[18] = Homo sapiens, HT-29, 240 h, read-out: IC50 clonogenic survival, 10 days drug exposure, 10 days exposure
[19] = 3-5 independent experiments, read-out: IC50 ± SE, DUOX2/A2 HEK 293

## [Cl-].c1csc([I+]c2cccs2)c1 [Compound 1, di-2-thienyliodonium chloride, reference compound]
[1]; [12]
  IC50: 32300 ± 13800 nM
[2]; [13]
  IC50: 3780 ± 2140 nM
[3]; 2 hrs exposure
  IC50 clonogenic survival, 2 hrs drug exposure (result in words): No Inhibition
[3]; [14]
  IC50: 113000 ± 92300 nM
[4]; [15]
  IC50: 1500 ± 1110 nM
[5]; [16]
  IC50: 3410 ± 1600 nM

## O=S(=O)([O-])C(F)(F)F.c1csc([I+]c2cccs2)c1 [Compound 3, di-2-thienyliodonium triflate]
[1]; [12]
  IC50: 29700 ± 41500 nM
[2]; [13]
  IC50: 1200 ± 1120 nM
[6]
  potency compared with parent molecule (DTI): more potent than its parent molecule
[3]; 2 hrs exposure
  IC50 clonogenic survival, 2 hrs drug exposure (result in words): No Inhibition
[3]; Homo sapiens, HT-29, read-out: IC50 (±SE) clonogenic survival, 6 hrs drug exposure, 6 hrs exposure
  IC50: 91200 ± 58800 nM
[4]; [15]
  IC50: 1490 ± 646 nM
[5]; [16]
  IC50: 2220 ± 1210 nM

## O=[N+]([O-])c1ccc2c(c1)[I+]c1cc([N+](=O)[O-])ccc1-2.[Br-] [Compound 15, Dibenziodolium, 3,7-dinitro-, bromide]
[7]
  effect on cell cycle progression: major block in cell cycle progression in S and G2 phases
[7]; 250 nM
  G1 (%): 23.9%
  G2 (%): 47.4%
  S phase (%): 28.7%
[7]; 500 nM
  G1 (%): 16.6%
  G2 (%): 25.2%
  S phase (%): 58.2%
[1]; [12]
  IC50: 139 ± 143 nM
[1]
  IC50 toward NOX4: low nM
[2]; [13]
  IC50: 208 ± 129 nM
[2]
  IC50 toward NOX5: low nM
[8]; treatment for 24 hr with 100 nM
  ROS production in HT-29 cells: significantly decreased
[9]; Homo sapiens, HT-29, 48 h
  IC50: 202 nM
[3]
  cytotoxic or cytostatic character: cytotoxic
  exposure required to inhibit growth / cell reproduction: only a short exposure at nM concentrations
[3]; [17]
  IC50: 180 ± 157 nM
[3]; [14]
  IC50: 116 ± 108 nM
[3]; [18]
  IC50: < 10 nM
[4]; [15]
  IC50: 310 ± 53 nM
[4]
  IC50 toward NOX2: low nM
[10]
  potency for inhibition of DUOX2 compared with parent compound (DPI): at least a log more potent
[10]; [19]
  IC50: 225 ± 24 nM
[5]; [16]
  IC50: 357 ± 268 nM
[5]
  IC50 toward NOX1: low nM

## Brc1ccc2c(c1)[I+]c1cc(Br)ccc1-2.[Br-] [Compound 16, Dibenziodolium, 3,7-dibromo-, bromide]
[7]; 250 nM
  G1 (%): 64.5%
  G2 (%): 7.9%
  S phase (%): 28.1%
[7]; 500 nM
  G1 (%): 57.2%
  G2 (%): 6.5%
  S phase (%): 36.2%
[1]; [12]
  IC50: 161 ± 153 nM
[1]
  IC50 toward NOX4: low nM
[2]; [13]
  IC50: 44 ± 21 nM
[2]
  IC50 toward NOX5: low nM
[8]; treatment for 24 hr with 10 nM
  ROS production in HT-29 cells: significantly decreased
[9]; Homo sapiens, HT-29, 48 h
  IC50: 50 nM
[3]
  exposure required to inhibit growth / cell reproduction: intermediate
[3]; [17]
  IC50: 1200 ± 1100 nM
[3]; [14]
  IC50: 536 ± 635 nM
[3]; [18]
  IC50: < 10 nM
[4]; [15]
  IC50: 127 ± 20 nM
[4]
  IC50 toward NOX2: low nM
[10]; [19]
  IC50: 4140 ± 1720 nM
[5]
  potency as inhibitor of NOX1 compared with DPI: more potent
  IC50 toward NOX1: low nM
[5]; [16]
  IC50: 70 ± 57 nM

## COC(=O)c1ccc2c(c1)[I+]c1ccccc1-2.Cc1ccc(S(=O)(=O)[O-])cc1 [Compound 21, Dibenz[b,d]iodolium, 3-(methoxycarbonyl)-, salt with 4-methyl-benzenesulfonic acid (1:1)]
[1]
  potency as inhibitor of NOX4 compared with DPI: more potent
  IC50 toward NOX4: low nM
[1]; [12]
  IC50: 127 ± 110 nM
[2]; [13]
  IC50: 55 ± 20 nM
[2]
  IC50 toward NOX5: low nM
[8]; treatment for 24 hr with 10 nM
  ROS production in HT-29 cells: significantly decreased
[9]; 48 hr drug exposure
  IC50: 148 nM
[3]; read-out: IC50 (±SE) clonogenic survival, 2 hrs drug exposure, 2 hrs exposure
  IC50: ~7000 nM
[3]; read-out: IC50 (±SE) clonogenic survival, 6 hrs drug exposure, 6 hrs exposure
  IC50: 1300 ± 300 nM
[4]; [15]
  IC50: 71 ± 15 nM
[4]
  IC50 toward NOX2: low nM
[10]; [19]
  IC50: 1990 ± 1690 nM
[5]; [16]
  IC50: 249 ± 116 nM
[5]
  IC50 toward NOX1: low nM

## CN(C)Cc1ccc2c(c1)[I+]c1cc(CN(C)C)ccc1-2.[I-] [Compound 24, Dibenziodolium, 3,7-bis[(dimethylamino)methyl]-, iodide]
[1]; [12]
  IC50: 35400 ± 42700 nM
[2]; [13]
  IC50: 2090 ± 903 nM
[8]; HT-29 human colon cancer cells
  inhibition of ROS production: no significant inhibition
[9]; Homo sapiens, HT-29, 48 h
  IC50: 87 nM
[11]
  inhibition of NOX1 expression: no significant inhibition
[4]; [15]
  IC50: 4380 ± 999 nM
[5]; [16]
  IC50: 2520 ± 2410 nM

## O=[N+]([O-])c1cccc2c1-c1c(cccc1[N+](=O)[O-])[I+]2.[Br-] [Compound 49, 1,9-dinitrodibenzo[b,d]iodolium bromide]
[1]; IC50 ± SE, NOX4 HEK293, 3-5 independent experiments
  IC50: 5530 ± 2680 nM
[1]
  IC50 toward NOX4: much higher
[2]; IC50 ± SE, NOX5 UACC-257, 3-5 independent experiments
  IC50: 229 ± 123 nM
[2]
  IC50 toward NOX5: submicromolar
[9]; even at higher concentrations
  Growth inhibition of NOX1-containing colon cancer cells versus the other analogs: much less
[4]; IC50 ± SE, NOX2 HL-60, 3-5 independent experiments
  IC50: 1470 ± 308 nM
[4]
  IC50 toward NOX2: much higher
[10]
  IC50: 773 ± 362 nM
  inhibition of DUOX2, as worded in text: submicromolar
  potency for inhibition of DUOX2 compared with parent compound (DPI): at least a log more potent
[5]; IC50 ± SE, NOX1/A1/O1 HEK 293, 3-5 independent experiments
  IC50: 1020 ± 361 nM
[5]
  IC50 toward NOX1: much higher
